Assay results published in EP4751721A1, “COMPOSITION CONTAINING NOVEL COMPOUND FOR PREVENTING OR TREATING PARKINSON'S DISEASE” (PRG S&Tech Inc., priority 2023, dated 2025).

How the values were obtained:
Syn-A53T = biological target: T1, Syn-A53T (Homo sapiens, UniProt P37840, A53T); test: Immunofluorescence staining of aggregated synuclein in transfected cells; type: cell-based; settings: Syn-A53T vector 24 h, compound 5 µM for 24 h, pan-Syn antibody, FIG. 1C
T1 construct: FLAG; host or cells: SK-N-SH

normal human fibroblasts = test: Cell viability (MTT assay) in normal human fibroblasts; type: cell-based; settings: 48 h; for cytotoxic effects (cell viability, MTT): normal human fibroblasts, FIG. 3
Procedure: SK-N-SH cells were purchased from the Korean Cell Line Bank (KCLB, Seoul, South Korea) and maintained in MEM medium containing 10% fetal bovine serum, 1% antibiotics, 25 mM HEPES, and 300 mg/L L-Glu. Human fibroblasts (person) were obtained from Coridll Cell Repositories (New Jersey, USA) and maintained in EMEM containing 15% FBS and 2 mM glutamine, along with 26 mM HEPES without antibiotics.
To investigate cell viability, cells were treated with chemicals (PRG-A compound) for 48 h. Then, the cells were incubated with 0.5 mg/ml 3-(4,5-dimethylthiazol-2-yl)-2,5-diphenyltetrazolium bromide (MTT) solution (475989; Merck, Darmstadt, Germany) at 37°C for 4 h. After removing the excess solution and washing with PBS, the precipitated substances were dissolved in 200 µl of DMSO and quantified by measuring the absorbance at 540 nm.
Lastly, to determine the toxicity of PRG-A compounds, normal human fibroblasts and neuroblastoma cells (SK-N-SH) were cultured with each compound for 48 h, and cell viability was measured via the MTT assay. The effect on survival rates of neuronal cells and normal fibroblasts was identified (FIG. 3).

Syn^A53T-Tg mice = test: In vivo treatment and histological analysis in Parkinson's disease (PD) mouse model
Procedure: Experiments were conducted in approved facility of Association for Assessment and Accreditation of Laboratory Animal Care in accordance with animal policies approved by Pusan National University. B6.Cg-Tg (Prnp-SNCAA53T)/J mice were obtained from Jackson Laboratory (Stock No: 006823). All mice were maintained under temperature- and light-controlled conditions (20-23°C, 12 h-12 h light/dark cycle) and provided with autoclaved food and water.
24 week-old Syn^A53T-Tg mice were administered vehicle (DMSO), PRG-A-03, and PRG-A-04 intraperitoneally twice a week for 24 to 26 weeks. Control mice were treated under the same conditions. Mice were sacrificed at 48-52 weeks of age for histological analysis. After cardiac perfusion with 4% paraformaldehyde, the brains were dissected and embedded in paraffin blocks according to standard tissue processing procedures. Embedded tissue ([…]) was cut into 5 µm sections using a tissue sectioner (Leica microtome) and transferred to adhesive-coated slides (Marienfeld laboratory glassware, Germany). For histological pathologic analysis of Syn^A53T-Tg mice, immunohistochemistry (IHC) using a dopaminergic neuronal marker (Tyrosine Hydroxylase) was performed after deparaffinization and rehydration. To monitor dopaminergic neurons by immunofluorescence (IF), dissected brains were embedded in agarose holders and sectioned with a vibratome. Thinly sliced tissues were treated with a blocking solution (normal donkey serum diluted 1:500 in 0.1% Triton X-100 PBS) for 1 h. Cells were incubated with anti-TH antibody (diluted 1:500) overnight at 4°C. Finally, cells were incubated with FITC-conjugated secondary antibody at 4°C for 2 h. Cells were washed three times with PBS, and coverslips were mounted using mounting solution (H-5501, Vector Laboratories), followed by analysis by fluorescence microscopy (Zeiss). […]

[1] = biological target: T2, synuclein mutant (Syn-A53T) (Homo sapiens, UniProt P37840, A53T); test: Insoluble/soluble synuclein fractionation by Western blot in SK-N-SH cells transfected with MT-Syn (Syn-A53T); type: cell-based; settings: treated for 24 h, pellet (insoluble) vs supernatant, FIG. 1B
T2 construct: FLAG; host or cells: SK-N-SH
Procedure: For SDS-PAGE, proteins were extracted from cells using RIPA buffer (50 mM Tris-Cl, pH 7.5, 150 mM NaCl, 1% NP-40, 0.1% SDS, and […] sodium deoxycholate). Samples were separated by SDS-PAGE and transferred to a PVDF membranes. The blotted membrane was blocked with 3% skim milk containing TBST buffer for 1 h and incubated with specific antibodies. Reacted antibodies were detected by ECL and X-ray film exposure. The antibody used in this experiment was pan-Syn (GTX112799), purchased from Genetex (California, USA). Actin antibody (66009-1-lg) and α-tubulin antibody (66240-1-lg) were obtained from Proteintech (Rosemont, IL, USA). Anti-FLAG (Sigma; F3165) from Sigma Aldrich (St, Louis, MO, USA) was used as a […], and HRP-conjugated goat anti-mouse, goat anti-rabbit, and mouse anti-goat antibodies (Pierce, Thermo Fisher Scientific, Inc., Rockford, IL, USA) were used. FLAG-Syn-WT and MT vectors were transfected into SK-N-SH cells for 24 h. […]
To identify the effect of the PRG-A compound on alpha-synuclein aggregation, the inventors transfected the FLAG-Syn-A30P vector into SK-N-SH cells for 24 h. […] Expression of synuclein was observed under a fluorescence microscope with a pan-Syn antibody (white arrow; high intensity of Syn).

CC1(C)Oc2cc3oc(=O)ccc3cc2C[C@@H]1O [Chem-001, decursinol]
Aggregated synuclein (immunofluorescence) (Syn-A53T): marginal effects

COc1cc(/C=C/C(=O)O[C@H]2Cc3cc4ccc(=O)oc4cc3OC2(C)C)ccc1O [PRG-A-01, (S)-8,8-dimethyl-2-oxo-7,8-dihydro-2H,6H-pyrano[3,2-g]chromen-7-yl (E)-3-(4-hydroxy-3-methoxyphenyl)acrylate]
cytotoxic effects (cell viability, MTT) (normal human fibroblasts): did not exhibit cytotoxic effects

COc1cc(/C=C/CO[C@H]2Cc3cc4ccc(=O)oc4cc3OC2(C)C)ccc1O [PRG-A-02, (S,E)-7-((3-(4-hydroxy-3-methoxyphenyl)allyl)oxy)-8,8-dimethyl-7,8-dihydro-2H,6H-pyrano[3,2-g]chromen-2-one]
cytotoxic effects (cell viability, MTT) (normal human fibroblasts): did not exhibit cytotoxic effects

CC1(C)Oc2cc3oc(=O)ccc3cc2C[C@@H]1OC(=O)/C=C/c1ccc(F)cc1 [PRG-A-03, (S)-8,8-dimethyl-2-oxo-7,8-dihydro-2H,6H-pyrano[3,2-g]chromen-7-yl (E)-3-(4-fluorophenyl)acrylate]
phosphorylation of Tau in brain tissue (Syn^A53T-Tg mice; brain tissue of Syn-A53T Tg, FIG. 2C): suppresses phosphorylation of Tau
Dopaminergic neuron markers (Tyrosine Hydroxylase, TH) in the substantia nigra (SN), IHC (Syn^A53T-Tg mice; intraperitoneal, 20 mg/kg or 40 mg/kg, 24 to 26 weeks, FIG. 2B): maintained
impact on cell viability (MTT) (normal human fibroblasts; high doses (50 and 100 µM), cell type not given): low impact on cell viability

COc1cc(/C=C/CO[C@H]2Cc3cc4ccc(=O)oc4cc3OC2(C)C)ccc1[N+](=O)[O-] [PRG-A-04, (S,E)-7-((3-(3-methoxy-4-nitrophenyl)allyl)oxy)-8,8-dimethyl-7,8-dihydro-2H,6H-pyrano[3,2-g]chromen-2-one]
loss of dopaminergic neurons in the SN by IF staining using TH (Syn^A53T-Tg mice; intraperitoneal, 20 mg/kg or 40 mg/kg, 24 to 26 weeks, FIG. 2D): prevents the loss of dopaminergic neurons
insoluble synuclein [1]: reduce insoluble synuclein in a dose-dependent manner
cytotoxic effects (cell viability, MTT) (normal human fibroblasts): did not exhibit cytotoxic effects
